Reference: patent publication US4585777A, “(-)-Trans-4-(4-fluorophenyl)-3-(4-methoxyphenoxy)methylpiperidine for potentiating 5-HT” (A/S Ferrosan, priority 1984, dated 1986)

Tests used:
in vivo = settings: mouse, in vivo, sc, TI (Therapeutic Index), 001/173, LD50/ED50, mice s.c.
Source text: (§1) (J. Buus Lassen, European Journal of Pharmacology 47, 351-358 (1978)). See also Squires in Acta Pharmacol. et Toxicol, 1972, 31 Suppl. 1,35 for a description of a further procedure for measurement of the same 5-HT uptake-inhibitory phenomenon.

mice [1] = assay: in vivo; settings: for FG 7080 is better by: T.I. Factor: factor by which FG 7080 is better than the listed compound; for FG 7080 is better by: T.I. %: percent by which FG 7080 is better than the listed compound; for TI (Therapeutic Index), 001/173: LD50/ED50, mice s.c.
Source text: as §1

[2] = Acute Toxicity in Mice (Procedure/Test 001); assay type: in vivo; settings: mouse, in vivo, sc, lethality at 24 hours, water-soluble salt
Source text: (§2) II. Acute Toxicity in Mice (Procedure 001)
(§3) Results are expressed as LD50 = . . . mg/kg s.c.

5-HT uptake = assay: Potentiation of 5-HTP (5-Hydroxytryptophane) induced hypermotility in mice (Procedure/Test 173); 5-HT potentiation or 5-HT uptake-inhibition; assay type: in vivo, mice (female, NMRI strain); settings: for ED (2-fold activity of controls): Mus musculus, sc, read-out: Test 173: dose increasing the activity to double the activity of controls receiving 5-HTP alone (ED), mice, s.c.; for FG 7080 is better by: 5-HT Potentiation Factor: factor by which FG 7080 is better than the listed compound; for FG 7080 is better by: 5-HT Potentiation %: percent by which FG 7080 is better than the listed compound
Source text: as §1
I. Potentiation of 5-HTP (5-Hydroxytryptophane) induced hypermotility in mice (Procedure 173)
(§4) This behavior is characterized by continuous jerky locomotion, head movements from side to side, abduction of the hind limbs, tremor, and lordosis.
Measurement of the motility after administration of test drugs to 5-HTP-pretreated mice is therefore used as a test for 5-HT-potentiation, which most probably proceeds through an inhibition of 5-HT uptake.
Method: Female mice of the NMRI strain weighing 20-22 g are used. The controls receive 5-HTP 150 mg/kg (15 ml/kg) i.p. (i.p.=intraperitoneally) and thirty (30) minutes later physiological saline (20 ml/kg) s.c. (s.c.=subcutaneously). The motility is measured by an Animex™ motimeter 45-75 minutes after 5-HTP administration. The test animals received test substances s.c. (20 ml/kg) instead of physiological saline. Five groups of two (2) mice are used for control and per dose of each test drug. the test substance is dosed according to the dose scale 1, 1.6, 2.5, 4, 6.3, and 10 mg/kg etc.
The best straight line is fitted through the points in a coordinate system (abscissa log dose, ordinate log activity). […] The activity of controls is investigated in thirty (30) groups of two (2) mice.

mice [3] = assay: Acute Toxicity in Mice (Procedure/Test 001); assay type: in vivo; settings: s.c., lethality at 24 hours, water-soluble salt, 1440 min
Source text: as §2, §3

mice [4] = settings: Reference 6; cited from earlier work
mice [5] = assay: Locomotor activity / behavior in mice after 5-HTP, with or without pretreatment (background of Procedure 173); assay type: in vivo
Source text: as §4
Therefore, increased 5-HT in brain seems to be necessary for development of the abnormal behavior, but catecholamine release is probably not related to hyperactivity.

[6] = References 1-4, cited from earlier work
[7] = 5-HTP 150 mg/kg i.p. 30 min before, motility 45-75 min after 5-HTP, water-soluble salt
[8] = versus (+) trans isomer FG 8035

COc1ccc(OC[C@@H]2CN(C)CC[C@H]2c2ccc(F)cc2)cc1 (relative stereo) [FG 98-I]
selectivity ratio (in vivo): 461
FG 7080 is better by: T.I. Factor (mice [1]): 2.17
FG 7080 is better by: T.I. % (mice [1]): 217%
LD50 at 24 h [2]: 600 mg/kg
ED (2-fold activity of controls) (5-HT uptake; [7]): 1.3 mg/kg
FG 7080 is better by: 5-HT Potentiation Factor (5-HT uptake): 1.3
FG 7080 is better by: 5-HT Potentiation % (5-HT uptake): 130%

COc1ccc(OC[C@@H]2CN(C)CC[C@H]2c2ccccc2)cc1 (relative stereo) [FG 4932, reference compound]
selectivity ratio (in vivo): 13
LD50 at 24 h [2]: 100 mg/kg
ED (2-fold activity of controls) (5-HT uptake; [7]): 7.7 mg/kg

COc1ccc(OC[C@@H]2CN(C)CC[C@H]2c2ccccc2)cc1 (single isomer, unassigned) [FG 4962, reference compound]
TI (Therapeutic Index), 001/173 (mice [1]): 53
FG 7080 is better by: T.I. Factor (mice [1]): 19.87
FG 7080 is better by: T.I. % (mice [1]): 1887%
Test 001: LD50 (mice [3]): 200 mg/kg
FG 7080 is better by: 5-HT Potentiation Factor (5-HT uptake): 3.8
Test 173: dose increasing the activity to double the activity of controls receiving 5-HTP alone (ED) (5-HT uptake; mice, s.c., 5-HTP 150 mg/kg i.p. 30 min before, motility 45-75 min after 5-HTP, water-soluble salt): 3.8 mg/kg
FG 7080 is better by: 5-HT Potentiation % (5-HT uptake): 380%

COc1ccc(OC[C@@H]2CN(C)CC[C@H]2c2ccccc2)cc1 (single isomer, unassigned) [FG 4963, reference compound]
TI (Therapeutic Index), 001/173 (mice [1]): 134
FG 7080 is better by: T.I. Factor (mice [1]): 7.46
FG 7080 is better by: T.I. % (mice [1]): 746%
LD50 at 24 h [2]: 375 mg/kg
ED (2-fold activity of controls) (5-HT uptake; [7]): 2.8 mg/kg
FG 7080 is better by: 5-HT Potentiation Factor (5-HT uptake): 2.8
FG 7080 is better by: 5-HT Potentiation % (5-HT uptake): 280%

COc1ccc(OC[C@@H]2CNCC[C@H]2c2ccccc2)cc1 (single isomer, unassigned) [FG 4996, reference compound]
selectivity ratio (in vivo): 14
Test 001: LD50 (mice [3]): 125 mg/kg
ED (2-fold activity of controls) (5-HT uptake; [7]): 9 mg/kg

CN1CC[C@@H](c2ccc(F)cc2)[C@H](COc2ccc3c(c2)OCO3)C1 (single isomer, unassigned) [FG 7043, reference compound]
selectivity ratio (in vivo): 63
LD50 at 24 h [2]: 250 mg/kg
ED (2-fold activity of controls) (5-HT uptake; [7]): 4 mg/kg

Fc1ccc([C@@H]2CCNC[C@H]2COc2ccc3c(c2)OCO3)cc1 (single isomer, unassigned) [FG 7051]
LD50 at 24 h [2]: 285 mg/kg

COc1ccc(OC[C@@H]2CNCC[C@H]2c2ccc(F)cc2)cc1 (single isomer, unassigned) [FG 7080, (-)-trans-4-(4-fluorophenyl)-3-(4-methoxyphenoxy)methylpiperidine]
TI (Therapeutic Index), 001/173 (mice [1]): 1000
Therapeutic Index compared with most structurally closely-related compounds, in words (mice [1]; Table I comparison): even more remarkably and unpredictably superior
superior as to Therapeutic Index, as % (mice [1]; versus FG 4996): > 7100%
superior by a factor as to Therapeutic Index (mice [1]; versus FG 4996): greater than 71 times
Therapeutic Index, as % (mice [1]; versus FG 7006): > 5500%
Therapeutic Index, times as great (mice [1]; versus FG 7006): more than 55 times
Therapeutic Index, as % (mice [1]; versus FG 8035): > 4100%
Therapeutic Index, times as great (mice [1]; versus FG 8035): more than 41 times
LD50 at 24 h [2]: 1000 mg/kg
ED (2-fold activity of controls) (5-HT uptake; [7]): 1 mg/kg
5-HT potentiation compared with most structurally closely-related compounds, in words (5-HT uptake; Table I comparison): remarkably and unpredictably superior
times as active in 5-HT potentiation (5-HT uptake; [8]): approximately 22 times
times as active in 5-HT potentiation, as % (5-HT uptake; [8]): ~2200%
superior as to 5-HT potentiation, as % (5-HT uptake; versus FG 4996): ~900%
superior by a factor as to 5-HT potentiation (5-HT uptake; versus FG 4996): approximately 9 times
5-HT potentiation activity, as % (5-HT uptake; versus FG 7006): ~2000%
5-HT potentiation activity, times as great (5-HT uptake; versus FG 7006): approximately 20 times

COc1ccc(OC[C@@H]2CN(C)CC[C@H]2c2ccc(F)cc2)cc1.Cl (single isomer, unassigned) [FG 8032, (+)-trans-4-(4-fluorophenyl)-3-[(4-methoxyphenoxy)methyl]-1-methylpiperidine hydrochloride]
TI (Therapeutic Index), 001/173 (mice [1]): 17
FG 7080 is better by: T.I. Factor (mice [1]): 58.82
FG 7080 is better by: T.I. % (mice [1]): 5882%
LD50 at 24 h [2]: 400 mg/kg
ED (2-fold activity of controls) (5-HT uptake; [7]): 23 mg/kg
FG 7080 is better by: 5-HT Potentiation Factor (5-HT uptake): 23
FG 7080 is better by: 5-HT Potentiation % (5-HT uptake): 2300%

COc1ccc(OC[C@@H]2CN(C)CC[C@H]2c2ccc(F)cc2)cc1 (single isomer, unassigned) [FG 8033, (-)-trans-4-(4-fluorophenyl)-3-[(4-methoxyphenoxy)-methyl]-1-methyl-piperidine]
TI (Therapeutic Index), 001/173 (mice [1]): 800
LD50 at 24 h [2]: 400 mg/kg
ED (2-fold activity of controls) (5-HT uptake; [7]): 0.5 mg/kg

CC(=O)O.COc1ccc(OC[C@@H]2CNCC[C@H]2c2ccc(F)cc2)cc1 (single isomer, unassigned) [FG 8035, (+)-trans-4-(4-fluorophenyl)-3-((4-methoxyphenoxy)methyl)piperidine acetate]
TI (Therapeutic Index), 001/173 (mice [1]): 24
LD50 at 24 h [2]: 530 mg/kg
ED (2-fold activity of controls) (5-HT uptake; [7]): 22 mg/kg

NNCc1cccc(O)c1 [3-hydroxybenzylhydrazine]
effect of pretreatment on the hyperactivity (5-HTP plus 5-HT-uptake blocker) (mice [4]): inhibited it significantly

N[C@@H](Cc1c[nH]c2ccc(O)cc12)C(=O)O [5-HTP, 5-Hydroxytryptophane]
motility / locomotor activity (mice [5]; 5-HTP 150 mg/kg): producing a small decrease of motility
motility / locomotor activity (mice [5]; 5-HTP 600 mg/kg): increasing the activity
concentration of NA and DA ([6]; high doses, parenteral): decrease the concentration of NA and DA
brain concentration of 5-HT ([6]; parenteral treatment): increases the brain concentration of 5-HT

CC(N)(Cc1ccc(O)cc1)C(=O)O (stereo not drawn) [α-methyl-p-tyrosine]
effect of pretreatment on the hyperactivity (5-HTP plus 5-HT-uptake blocker) (mice [4]): does not influence this hyperactivity
